Laboratory results taken from the NIST ThermoML archive (doi:10.1021/je800069z).
Numbers after ± are expanded uncertainties.

Settings: Ring tensiometer

SMILES	surface tension liquid-gas (293.15 K) [mN/m]	surface tension liquid-gas (303.15 K) [mN/m]	surface tension liquid-gas (313.15 K) [mN/m]	surface tension liquid-gas (323.15 K) [mN/m]	surface tension liquid-gas (333.15 K) [mN/m]	surface tension liquid-gas (343.15 K) [mN/m]	surface tension liquid-gas (353.15 K) [mN/m]
CCCCCC[n+]1ccn(C)c1.O=S(=O)([N-]S(=O)(=O)C(F)(F)F)C(F)(F)F	32.31 ± 0.61	31.76 ± 0.6	31.2 ± 0.59	30.6 ± 0.58	30.16 ± 0.57	29.62 ± 0.56	–
CCCCCCCCn1cc[n+](C)c1.O=S(=O)([N-]S(=O)(=O)C(F)(F)F)C(F)(F)F	31.93 ± 0.6	31.3 ± 0.59	30.57 ± 0.58	29.98 ± 0.57	29.4 ± 0.56	28.86 ± 0.55	–
CCCn1cc[n+](C)c1.O=S(=O)([N-]S(=O)(=O)C(F)(F)F)C(F)(F)F	34.87 ± 0.65	34.22 ± 0.64	33.73 ± 0.63	33.31 ± 0.62	32.79 ± 0.61	32.18 ± 0.6	–
CCCCCCCn1cc[n+](C)c1.O=S(=O)([N-]S(=O)(=O)C(F)(F)F)C(F)(F)F	32 ± 0.6	31.36 ± 0.59	30.66 ± 0.58	30.02 ± 0.57	29.5 ± 0.56	28.95 ± 0.55	28.29 ± 0.54
CCn1cc[n+](C)c1.O=S(=O)([N-]S(=O)(=O)C(F)(F)F)C(F)(F)F	36.94 ± 0.68	36.43 ± 0.67	35.92 ± 0.66	35.51 ± 0.66	34.96 ± 0.65	34.57 ± 0.64	–
CCCCCn1cc[n+](C)c1.O=S(=O)([N-]S(=O)(=O)C(F)(F)F)C(F)(F)F	32.9 ± 0.62	32.41 ± 0.61	31.83 ± 0.6	31.27 ± 0.59	30.77 ± 0.58	30.31 ± 0.58	–
CCCC[n+]1ccn(C)c1.O=S(=O)([N-]S(=O)(=O)C(F)(F)F)C(F)(F)F	33.6 ± 0.63	33.09 ± 0.62	32.5 ± 0.61	31.92 ± 0.6	31.35 ± 0.59	30.9 ± 0.58	–
CCCCCCCCCCn1cc[n+](C)c1.O=S(=O)([N-]S(=O)(=O)C(F)(F)F)C(F)(F)F	32.12 ± 0.6	31.34 ± 0.59	30.7 ± 0.58	30.1 ± 0.57	29.5 ± 0.56	28.68 ± 0.55	–
